Here are results for 8 compounds from ChEMBL document CHEMBL1933051, “Cytotoxic bistetrahydrofuran annonaceous acetogenins from the seeds of Annona squamosa” (J Nat Prod, 2011).

Structures are written as SMILES. In brackets after ≈: the same amount, converted by molar mass.

Common to all, as to assay type: functional, cell-based
Experiment [1] concerns A549. The experiment in a line: Cytotoxicity against human A549 cells by MTT assay. A general note: Tetrazolium dyes change colour on reduction, which living cells bring about.
Experiment [2] relates to HeLa. The experiment in a line: Cytotoxicity against human HeLa cells by MTT assay.
Experiment [3] has as its system MCF7. The experiment in a line: Cytotoxicity against human MCF7 cells by MTT assay.
The subject of experiment [4] is HepG2. In words: Cytotoxicity against human HepG2 cells by MTT assay.
In experiment [5] the test system is SMMC-7721. The experiment in a line: Cytotoxicity against human SMMC7721 cells by MTT assay.
The subject of experiment [6] is MKN-45. In words: Cytotoxicity against human MKN45 cells by MTT assay.

As usually defined, the IC50 is the concentration needed to halve the response being measured. A higher IC50 goes with a need for much substance. As for `CCCCCCCCCCCC(O)CCC[C@H](O)[C@H]1CC[C@H]([C@H]2CC[C@H]([C@H](O)CCCCCCCC3=C[C@H](C)OC3=O)O2)O1` (relative stereo), the IC50 is 0.012 µg/mL (≈ 0.0193 µM) in experiment [1]; 0.025 µg/mL (≈ 0.0401 µM) in experiment [2]; 0.052 µg/mL (≈ 0.0835 µM) in experiment [3]; 0.022 µg/mL (≈ 0.0353 µM) in experiment [4]; 0.057 µg/mL (≈ 0.0915 µM) in experiment [5]; 0.042 µg/mL (≈ 0.0674 µM) in experiment [6].

On to `CCCC[C@H](O)[C@H](O)[C@@H]1CC[C@@H]([C@H](O)CC[C@H](O)[C@@H]2CC[C@@H](CCCCCCCCCCCCCCC3=C[C@H](C)OC3=O)O2)O1` (relative stereo), for which the half-inhibitory concentration (IC50) in experiment [1] was 0.31 µg/mL (≈ 0.485 µM); in experiment [2], 0.57 µg/mL (≈ 0.892 µM); in experiment [3] it was 0.5 µg/mL (≈ 0.783 µM); in experiment [4] it was 0.17 µg/mL (≈ 0.266 µM); in experiment [5], 0.11 µg/mL (≈ 0.172 µM); in experiment [6], 0.14 µg/mL (≈ 0.219 µM).

Turning to `CCCCC[C@H](O)[C@@H]1CC[C@@H]([C@H](O)CC[C@H](O)[C@@H]2CC[C@@H](CCCCCCCCCCCC[C@@H](O)CC3=C[C@H](C)OC3=O)O2)O1` (relative stereo), the IC50 was 0.68 µg/mL (≈ 1.06 µM) in experiment [1]; 1.5 µg/mL (≈ 2.35 µM) in experiment [2]; 0.75 µg/mL (≈ 1.17 µM) in experiment [3]; 0.8 µg/mL (≈ 1.25 µM) in experiment [4]; 0.39 µg/mL (≈ 0.61 µM) in experiment [5]; 0.59 µg/mL (≈ 0.923 µM) in experiment [6].

Regarding `CCCCCCCCCC[C@@H](O)[C@@H]1CC[C@@H]([C@@H]2CC[C@@H]([C@H](O)CCCCCCCCCC(O)CC3=CC(C)OC3=O)O2)O1` (stereo partly drawn) [BULLATACIN], the IC50 in experiment [1] was 0.033 µg/mL (≈ 0.0542 µM); in experiment [2], 0.034 µg/mL (≈ 0.0558 µM); in experiment [3], 0.043 µg/mL (≈ 0.0706 µM); in experiment [4], 0.032 µg/mL (≈ 0.0526 µM); in experiment [5], 0.0048 µg/mL (≈ 0.00788 µM); in experiment [6], 0.053 µg/mL (≈ 0.087 µM).

For the compound `O=c1[nH]cc(F)c(=O)[nH]1` [FLUOROURACIL], the IC50 in experiment [1] worked out at 0.32 µg/mL (≈ 2.46 µM); in experiment [2], 0.14 µg/mL (≈ 1.08 µM); in experiment [3], 0.22 µg/mL (≈ 1.69 µM); in experiment [4] it was 0.0082 µg/mL (≈ 0.063 µM); in experiment [5] it was 0.023 µg/mL (≈ 0.177 µM); in experiment [6], 0.36 µg/mL (≈ 2.77 µM).

Consider `CCCCCC[C@@H](O)CCC[C@H](O)[C@@H]1CC[C@@H]([C@H](O)CC[C@@H](O)[C@@H]2CC[C@@H](CCCCCCCCCC3=C[C@@H](C)OC3=O)O2)O1` [Squamostatin-A], for which the IC50 worked out at 0.21 µg/mL (≈ 0.329 µM) in experiment [1]; 0.45 µg/mL (≈ 0.704 µM) in experiment [2]; 0.15 µg/mL (≈ 0.235 µM) in experiment [3]; 0.83 µg/mL (≈ 1.3 µM) in experiment [4]; 0.49 µg/mL (≈ 0.767 µM) in experiment [5]; 0.93 µg/mL (≈ 1.46 µM) in experiment [6].

On to `CCCCCCCCCC[C@H](O)[C@@H]1CC[C@@H]([C@H](O)CC[C@@H](O)[C@@H]2CC[C@@H](CCCCCCCCCC3=C[C@@H](C)OC3=O)O2)O1` [Squamostatin-D], for which the IC50 in experiment [1] is 0.046 µg/mL (≈ 0.0738 µM); in experiment [2], 0.1 µg/mL (≈ 0.161 µM); in experiment [3] it was 0.11 µg/mL (≈ 0.177 µM); in experiment [4], 0.56 µg/mL (≈ 0.899 µM); in experiment [5], 0.25 µg/mL (≈ 0.401 µM); in experiment [6], 0.87 µg/mL (≈ 1.4 µM).

Regarding `CCCCCCCCCC[C@@H](O)[C@H]1CC[C@H]([C@H]2CC[C@H]([C@H](O)CCCCCCCCC[C@H](O)CCC3=C[C@H](C)OC3=O)O2)O1` [UVARIGRANDIN A], the IC50 in experiment [1] worked out at 0.08 µg/mL (≈ 0.128 µM); in experiment [2], 0.07 µg/mL (≈ 0.112 µM); in experiment [3], 0.096 µg/mL (≈ 0.154 µM); in experiment [4], 0.78 µg/mL (≈ 1.25 µM); in experiment [5], 0.0029 µg/mL (≈ 0.00466 µM); in experiment [6], 0.069 µg/mL (≈ 0.111 µM).
